US9133181B2, “Substituted 6-(4-hydroxy-phenyl)-1H-pyrazolo[3,4-b]pyridine derivatives as kinase inhibitors” (SANOFI, priority 2012, dated 2015)

target: T1, human full-length recombinant PKC βII (Homo sapiens, UniProt P05771); assay: Determination of PKC βII inhibition (Caliper mobility shift kinase assay); assay type: biochemical; details: final compound concentration 1.14 μM (±0.15 μM); 60 min incubation at 32° C.
T1 construct: Active human full-length recombinant PKC βII; purchased Invitrogen GmbH, Darmstadt, Germany
T1 sequence (P05771 1-673 isoform P05771-2): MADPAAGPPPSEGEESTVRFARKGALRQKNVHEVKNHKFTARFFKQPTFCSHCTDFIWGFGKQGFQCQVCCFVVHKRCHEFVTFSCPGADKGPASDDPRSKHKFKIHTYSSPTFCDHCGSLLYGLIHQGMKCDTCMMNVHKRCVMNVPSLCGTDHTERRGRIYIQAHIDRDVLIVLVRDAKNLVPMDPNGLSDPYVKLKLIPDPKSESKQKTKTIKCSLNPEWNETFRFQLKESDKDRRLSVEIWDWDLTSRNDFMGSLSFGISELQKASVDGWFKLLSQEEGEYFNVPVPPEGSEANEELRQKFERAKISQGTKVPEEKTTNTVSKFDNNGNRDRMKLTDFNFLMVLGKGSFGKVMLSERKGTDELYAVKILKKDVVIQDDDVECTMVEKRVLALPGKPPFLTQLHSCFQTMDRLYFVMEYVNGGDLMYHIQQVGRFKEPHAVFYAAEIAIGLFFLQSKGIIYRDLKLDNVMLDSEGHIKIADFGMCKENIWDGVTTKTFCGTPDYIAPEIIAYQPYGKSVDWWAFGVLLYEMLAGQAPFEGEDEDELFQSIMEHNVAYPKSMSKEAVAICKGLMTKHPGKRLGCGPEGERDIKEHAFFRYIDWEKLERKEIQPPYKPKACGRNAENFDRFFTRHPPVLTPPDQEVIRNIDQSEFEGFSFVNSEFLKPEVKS
Outline: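 Compound was tested at a final 1.14 µM (±0.15 µM), with % inhibition derived from the product/(substrate+product) peak ratio on a Caliper mobility-shift read-out. Full-length PKC βII was activated by CaCl2, PS and DAG in pH 7.4 Hepes/MgCl2. Peptide and ATP were at 3 µM and 120 µM in the added mix. Incubation was 60 min at 32 °C.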

| inhibition at 1.14 µM [%] | SMILES |
| --- | --- |
| 100 | Cc1n[nH]c2nc(-c3ccc(O)cc3F)cc(CN3CCC[C@](C)(N)C3)c12 [Example 147, 4-[4-((S)-3-Amino-3-methyl-piperidin-1-ylmethyl)-3-methyl-1H-pyrazolo[3,4-b]pyridin-6-yl]-3-fluoro-phenol] |
| 99 | Cc1n[nH]c2nc(-c3ccc(O)cc3F)cc(CN3CCC[C@@](C)(N)C3)c12 [Example 148, 4-[4-((R)-3-Amino-3-methyl-piperidin-1-ylmethyl)-3-methyl-1H-pyrazolo[3,4-b]pyridin-6-yl]-3-fluoro-phenol] |
| 98 | Cc1n[nH]c2nc(-c3ccc(O)cc3F)cc(CN3C[C@@](C)(C4CC4)NCC3(C)C)c12 [Example 149, 4-[4-((R)-5-Cyclopropyl-2,2,5-trimethyl-piperazin-1-ylmethyl)-3-methyl-1H-pyrazolo[3,4-b]pyridin-6-yl]-3-fluoro-phenol] |
| 100 | Cc1n[nH]c2nc(-c3ccc(O)cc3F)cc(CN3C[C@](C)(C4CC4)NCC3(C)C)c12 [Example 150, 4-[4-((S)-5-Cyclopropyl-2,2,5-trimethyl-piperazin-1-ylmethyl)-3-methyl-1H-pyrazolo[3,4-b]pyridin-6-yl]-3-fluoro-phenol] |
| 90 | Cc1n[nH]c2nc(-c3ccc(O)cc3F)cc(CN3C[C@H](C)NC[C@@H]3C(F)(F)F)c12 [Example 151, 3-Fluoro-4-[3-methyl-4-((2R,5S)-5-methyl-2-trifluoromethyl-piperazin-1-ylmethyl)-1H-pyrazolo[3,4-b]pyridin-6-yl]-phenol] |
| 93 | Cc1n[nH]c2nc(-c3ccc(O)cc3F)cc(CN3C[C@@H](C)NC[C@@H]3C(F)(F)F)c12 [Example 152, 3-Fluoro-4-[3-methyl-4-((2R,5R)-5-methyl-2-trifluoromethyl-piperazin-1-ylmethyl)-1H-pyrazolo[3,4-b]pyridin-6-yl]-phenol] |
| 97 | Cc1n[nH]c2nc(-c3ccc(O)cc3F)cc(CN3C[C@@H](C)NC[C@H]3C(F)(F)F)c12 [Example 153, 3-Fluoro-4-[3-methyl-4-((2S,5R)-5-methyl-2-trifluoromethyl-piperazin-1-ylmethyl)-1H-pyrazolo[3,4-b]pyridin-6-yl]-phenol] |
| 92 | Cc1n[nH]c2nc(-c3ccc(O)cc3F)cc(CN3C[C@H](C)NC[C@H]3C(F)(F)F)c12 [Example 154, 3-Fluoro-4-[3-methyl-4-((2S,5S)-5-methyl-2-trifluoromethyl-piperazin-1-ylmethyl)-1H-pyrazolo[3,4-b]pyridin-6-yl]-phenol] |

The remaining lines, values behind:

| SMILES | inhibition at 1.14 µM [%] |
| --- | --- |
| Cc1n[nH]c2nc(-c3ccc(O)cc3F)cc(CN3CC4(CCCC4)NC[C@@H]3C)c12 [Example 137, 3-Fluoro-4-[3-methyl-4-((S)-8-methyl-6,9-diaza-spiro[4.5]dec-9-ylmethyl)-1H-pyrazolo[3,4-b]pyridin-6-yl]-phenol] | 98 |
| Cc1n[nH]c2nc(-c3ccc(O)cc3F)cc(CN3CC4(CCCC4)NC[C@H]3C)c12 [Example 138, 3-Fluoro-4-[3-methyl-4-((R)-8-methyl-6,9-diaza-spiro[4.5]dec-9-ylmethyl)-1H-pyrazolo[3,4-b]pyridin-6-yl]-phenol] | 98 |
| Cc1n[nH]c2nc(-c3ccc(O)cc3)cc(CN3CC(C)(C)NC[C@@H]3C)c12 [Example 139, 4-[3-Methyl-4-((S)-2,5,5-trimethyl-piperazin-1-ylmethyl)-1H-pyrazolo[3,4-b]pyridin-6-yl]-phenol] | 95 |
| Cc1n[nH]c2nc(-c3ccc(O)cc3)cc(CN3CC(C)(C)NC[C@H]3C)c12 [Example 140, 4-[3-Methyl-4-((R)-2,5,5-trimethyl-piperazin-1-ylmethyl)-1H-pyrazolo[3,4-b]pyridin-6-yl]-phenol] | 98 |
| CC[C@]1(C)CNC(C)(C)CN1Cc1cc(-c2ccc(O)cc2)nc2[nH]nc(C)c12 [Example 141, 4-[4-((R)-2-Ethyl-2,5,5-trimethyl-piperazin-1-ylmethyl)-3-methyl-1H-pyrazolo[3,4-b]pyridin-6-yl]-phenol] | 98 |
| CC[C@@]1(C)CNC(C)(C)CN1Cc1cc(-c2ccc(O)cc2)nc2[nH]nc(C)c12 [Example 142, 4-[4-((S)-2-Ethyl-2,5,5-trimethyl-piperazin-1-ylmethyl)-3-methyl-1H-pyrazolo[3,4-b]pyridin-6-yl]-phenol] | 100 |
| CC[C@H]1CNC(C)(C)CN1Cc1cc(-c2ccc(O)cc2F)nc2[nH]nc(C)c12 [Example 143, 4-[4-((S)-2-Ethyl-5,5-dimethyl-piperazin-1-ylmethyl)-3-methyl-1H-pyrazolo[3,4-b]pyridin-6-yl]-3-fluoro-phenol] | 101 |
| CC[C@@H]1CNC(C)(C)CN1Cc1cc(-c2ccc(O)cc2F)nc2[nH]nc(C)c12 [Example 144, 4-[4-((R)-2-Ethyl-5,5-dimethyl-piperazin-1-ylmethyl)-3-methyl-1H-pyrazolo[3,4-b]pyridin-6-yl]-3-fluoro-phenol] | 98 |
| CC[C@H]1CNC(C)(C)CN1Cc1cc(-c2ccc(O)cc2)nc2[nH]nc(C)c12 [Example 145, 4-[4-((S)-2-Ethyl-5,5-dimethyl-piperazin-1-ylmethyl)-3-methyl-1H-pyrazolo[3,4-b]pyridin-6-yl]-phenol] | 95 |
| CC[C@@H]1CNC(C)(C)CN1Cc1cc(-c2ccc(O)cc2)nc2[nH]nc(C)c12 [Example 146, 4-[4-((R)-2-Ethyl-5,5-dimethyl-piperazin-1-ylmethyl)-3-methyl-1H-pyrazolo[3,4-b]pyridin-6-yl]-phenol] | 99 |
